System: whole blood culture
Assay: inflammatory cell activation (CD69, CD25 expression) in whole blood culture
Type: cell-based
Settings: samples from human subjects; 0.006 mg/mL, 0.05 g/mL or 0.4 mg/mL in culture medium; dose-dependent
Description: A dose of 0.006 mg/mL, […] or 0.4 mg/mL (concentration of formulation in culture medium) was employed, but any dose less than 0.006 mg/mL or greater than 0.4 mg/mL or between 0.006 mg/mL and 0.4 mg/mL (concentration of formulation in any diluent) is likewise within the scope of this disclosure. […] Activation of inflammatory cells was measured, and is verified by assays known in the art, by expression of CD69, a protein expressed on activated white blood cells including T lymphocytes, NK cells, monocytes and PMN cells. Activation of inflammatory cells was measured, and is verified by assays known in the art, by expression of CD25, the alpha chain of the low affinity interleukin-2 (IL-2) receptor. […] An increase such as that observed in this Example may be, by way of example and not of limitation, of at least about 1%, or of at least about 2%, or of at least about 5%, or of at least about 10%, or of at least about 20%, or of at least about 30%, or of at least about 40%, or of at least about 50%, or of at least about 60%, or of at least about 70%, or of at least about 80%, or of at least about 90%. A statistically significant decrease is a function of sample size and variability. […]

## CS(C)(=O)=O [MSM, methylsulfonylmethane]
  inflammatory cell activation: decrease

## Hyaluronan [HA]
  inflammatory cell activation: decrease

Source: patent publication US10398723B1, “Hyaluronan-containing composition and use thereof for mitigation and/or prevention of inflammation and/or pain” (Viscos, LLC, priority 2015, dated 2019)
